From patent publication US6979686B1, “Substituted pyrazoles as p38 kinase inhibitors” (Pharmacia Corporation, priority 2001, dated 2005)
Read-outs that look alike come from different tables or passages of the source.

Assays:
[1] = tested on: TNF-α, U937 human histiocytic lymphoma cell line; assay: LPS stimulation of TNF production by U937 cells; type: cell-based; conditions: TNF production; for U937 Cell % inhib @ conc. / U937 Cell IC50, uM or % inhib @ conc. (uM): % inhib: @ 10.0 uM; for U937 Cell % inhib @ conc.: LPS-stimulated U937 cells
Method in brief: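 U937 cells differentiated 24 h with 20 ng/ml PMA, rested 24-48 h, used at 2 million cells/ml. Compounds in 0.1% DMSO final; LPS (E. coli, 100 ng/ml final) stimulation for 4 h at 37° C. Released TNF-α measured by ELISA; IC50 (μM).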

human p38 kinase alpha = target: T1, human p38 kinase alpha (Homo sapiens, UniProt Q16539); assay: p38 kinase in vitro assay, phosphorylation of biotinylated PHAS-I with 32P-ATP; type: biochemical
T1 construct: GST (N, cleaved yes); made in house; host or cells: E. coli DH10B
T1 sequence (Q16539 whole entry): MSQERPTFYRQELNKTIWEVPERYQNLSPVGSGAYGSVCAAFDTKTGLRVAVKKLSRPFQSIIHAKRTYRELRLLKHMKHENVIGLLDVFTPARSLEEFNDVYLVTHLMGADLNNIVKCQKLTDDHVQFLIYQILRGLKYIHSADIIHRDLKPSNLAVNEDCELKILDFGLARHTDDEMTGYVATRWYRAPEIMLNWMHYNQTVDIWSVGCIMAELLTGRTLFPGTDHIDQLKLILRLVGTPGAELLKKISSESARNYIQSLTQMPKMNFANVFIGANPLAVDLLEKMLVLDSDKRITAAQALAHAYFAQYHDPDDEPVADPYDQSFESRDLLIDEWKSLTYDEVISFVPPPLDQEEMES

[2] = human U937 cells stimulated with LPS, read-out: U937 Cell IC50
[3] = U937 cells stimulated with LPS, read-out: U937 Cell IC50, uM or % inhib @ conc. (uM): IC50

| Structure (SMILES) | U937 Cell IC50, uM or % inhib @ conc. (uM): % inhib ([1]; U937 cells stimulated with LPS) [% @] | P38 alpha kinase IC50, uM or % inhib @ conc. (uM): % inhib (human p38 kinase alpha; @ 10.0 uM) [% @] | also measured |
| --- | --- | --- | --- |
| CCN(CC)C(=O)Cn1nc(-c2ccc(F)cc2)c(-c2ccncc2)c1C [Example B-2371] |  |  | U937 Cell % inhib @ conc. [1]: 36.0% @; P38 alpha kinase % inhib @ conc. (human p38 kinase alpha; @ 10.0 uM): 54.0% @ |
| Cc1c(-c2ccncc2)c(-c2ccc(F)cc2)nn1CC(=O)N(CC(C)C)CC(C)C [Example B-2372] |  |  | IC50 [1, 2]: > 10 µM; P38 alpha kinase % inhib @ conc. (human p38 kinase alpha; @ 100.0 uM): 55.0% @ |
| C=CCN(C(=O)Cn1nc(-c2ccc(F)cc2)c(-c2ccncc2)c1C)C1CCCCC1 [Example B-2373] |  |  | U937 Cell % inhib @ conc. [1]: 6% @; P38 alpha kinase % inhib @ conc. (human p38 kinase alpha; @ 100.0 uM): 50.0% @ |
| Cc1c(-c2ccncc2)c(-c2ccc(F)cc2)nn1CC(=O)N(C)CCN(C)C [Example B-2375] |  |  | IC50 [1, 2]: > 10 µM; P38 alpha kinase % inhib @ conc. (human p38 kinase alpha; @ 100.0 uM): 62.0% @ |
| CCN(Cc1ccncc1)C(=O)Cn1nc(-c2ccc(F)cc2)c(-c2ccncc2)c1C [Example B-2381] |  |  | U937 Cell % inhib @ conc. [1]: 2.0% @; P38 alpha kinase % inhib @ conc. (human p38 kinase alpha; @ 100.0 uM): 68% @ |
| Cc1c(-c2ccncc2)c(-c2ccc(F)cc2)nn1CC(=O)N1CCCN(C)CC1 [Example B-2382] |  |  | U937 Cell % inhib @ conc. [1]: 24.0% @; P38 alpha kinase % inhib @ conc. (human p38 kinase alpha; @ 10.0 uM): 51.0% @ |
| Cc1c(-c2ccncc2)c(-c2ccc(F)cc2)nn1CC(=O)N1CCC[C@H]1CN1CCCC1 [Example B-2384] |  |  | U937 Cell % inhib @ conc. [1]: 10.0% @; P38 alpha kinase % inhib @ conc. (human p38 kinase alpha; @ 100.0 uM): 49% @ |
| Cc1c(-c2ccncc2)c(-c2ccc(F)cc2)nn1CC(=O)N(C)CCCC1c2ccccc2CCc2ccccc21 [Example B-2387] |  |  | IC50 [1, 3]: > 10 µM; P38 alpha kinase IC50, uM or % inhib @ conc. (uM): % inhib (human p38 kinase alpha; @ 100.0 uM): 50.0% @ |
| Cc1c(-c2ccncc2)c(-c2ccc(F)cc2)nn1CC(=O)N1CCC(N(C)C(=O)OC(C)(C)C)C1 (centres unmarked) [Example B-2389] | 29.0 | 39.0 |  |
| Cc1c(-c2ccncc2)c(-c2ccc(F)cc2)nn1CC(=O)N(C)CCn1ccnc1 [Example B-2393] |  | 43.0 | IC50 [1, 3]: > 10 µM |
| COCCN(Cc1cccc(OC)c1)C(=O)Cn1nc(-c2ccc(F)cc2)c(-c2ccncc2)c1C [Example B-2394] | 22.0 | 37.0 |  |
| Cc1c(-c2ccncc2)c(-c2ccc(F)cc2)nn1CC(=O)N(C)CCN1CCOCC1 [Example B-2395] | 28.0 | 32.0 |  |
| COc1ccc(CN(CCc2ccccc2)C(=O)Cn2nc(-c3ccc(F)cc3)c(-c3ccncc3)c2C)cc1 [Example B-2396] |  | 75.0 | IC50 [1, 3]: > 10 µM |
| Cc1c(-c2ccncc2)c(-c2ccc(F)cc2)nn1CC(=O)N(CC1CC1)C(C)Cc1ccc(Cl)cc1 (centres unmarked) [Example B-2397] | 22.0 | 83.0 |  |
| CCN(CC)CCN(Cc1ccc(Cl)cc1)C(=O)Cn1nc(-c2ccc(F)cc2)c(-c2ccncc2)c1C [Example B-2398] | 10.0 |  | P38 alpha kinase IC50, uM or % inhib @ conc. (uM): % inhib (human p38 kinase alpha; @ 100.0 uM): 55% @ |
| COc1ccc(C2OCCN2C(=O)Cn2nc(-c3ccc(F)cc3)c(-c3ccncc3)c2C)cc1OC (centres unmarked) [Example B-2399] | 18.0 | 69.0 |  |
| Cc1cc(Cl)ccc1OCC1SCCN1C(=O)Cn1nc(-c2ccc(F)cc2)c(-c2ccncc2)c1C (centres unmarked) [Example B-2405] |  |  | IC50 [1, 3]: > 10 µM; P38 alpha kinase IC50, uM or % inhib @ conc. (uM): % inhib (human p38 kinase alpha; @ 100.0 uM): 47% @ |
| COC(=O)C1CN1C(=O)Cn1nc(-c2ccc(F)cc2)c(-c2ccncc2)c1C (centres unmarked) [Example B-2406] | 24.0 | 45.0 |  |
| COc1ccc2[nH]c3c(c2c1)CCN(C(=O)Cn1nc(-c2ccc(F)cc2)c(-c2ccncc2)c1C)C3 [Example B-2408] | 10.0 | 39.0 |  |
| Cc1c(-c2ccncc2)c(-c2ccc(F)cc2)nn1CC(=O)N1CCCCC1CCN1CCCCC1 (centres unmarked) [Example B-2411] | 13.0 |  | P38 alpha kinase IC50, uM or % inhib @ conc. (uM): % inhib (human p38 kinase alpha; @ 100.0 uM): 26% @ |
| Cc1c(-c2ccncc2)c(-c2ccc(F)cc2)nn1CC(=O)N(C)CC(=O)N(C)C [Example B-2412] | 31.0 | 40.0 |  |
| Cc1cccc(C)c1NC(=O)Cn1nc(-c2ccc(F)cc2)c(-c2ccncc2)c1C [Example B-2417] | 18.0 | 83.0 |  |
| Cc1ccc(NC(=O)Cn2nc(-c3ccc(F)cc3)c(-c3ccncc3)c2C)cc1 [Example B-2423] |  | 85.0 | IC50 [1, 3]: > 10 µM |
| CCCCCCCCOc1cccc(NC(=O)Cn2nc(-c3ccc(F)cc3)c(-c3ccncc3)c2C)c1 [Example B-2442] |  | 86.0 | IC50 [1, 3]: > 10 µM |
| Cc1cccc(OC(=O)c2ccc(NC(=O)Cn3nc(-c4ccc(F)cc4)c(-c4ccncc4)c3C)cc2)c1 [Example B-2444] | 7.0 | 89.0 |  |
